From US20160089439A1, “Prevention of Illicit Manufacutre of Methamphetamine from Pseudoephedrine Using Food Flavor Excipients” (Satara Pharmaceuticals, LLC, priority 2014, published 2016)

Key:
[1] = Reaction of excipient and pseudoephedrine with red phosphorous and hydriodic acid, methamphetamine quantified; conditions: excipient 1.0 mmol + pseudoephedrine 1.0 mmol, 57% aqueous hydriodic acid, 90-100° C.; pseudoephedrine only = 100
[2] = Reaction of excipient and pseudoephedrine with lithium in liquid ammonia, methamphetamine quantified; conditions: for Relative percentage of methamphetamine formation, Li—NH3 Reduction: excipient 1.0 mmol + pseudoephedrine 1.0 mmol, pseudoephedrine only = 100
[3] = species and route not given; cited from earlier work

Compound | Relative percentage of methamphetamine formation, P—HI Reduction [1] [%] | Relative percentage of methamphetamine formation, Li—NH3 Reduction [2] | Inhibiting the conversion of pseudoephedrine to methamphetamine (in words) ([2]; summary of Table 1, both Li—NH3 and P—HI reductions) | LD50 [3] [mg/kg]
CC(C)COC(=O)c1ccccc1N [Isobutyl anthranilate] | 2.3 | <1% |  | 
CC(=O)c1nccs1 [2-Acetylthiazole] |  | <1% |  | 
Cc1cnc(C)c(C)n1 [2,3,5-Trimethylpyrazine] | 20 | 8% |  | 
CCOc1cnc(C)cn1 [2-Ethoxy-5-methylpyrazine] | 15 | 7% |  | 
COc1nccnc1C [2-Methoxy-3-methylpyrazine] | 2.0 | <1% |  | 
CCOc1cncc(C)n1 [2-Ethoxy-6-methylpyrazine] | 13 | 4% |  | 
COc1nccnc1CC(C)C [2-Isobutyl-3-methoxypyrazine] | 27 | 2% |  | 
CC(=O)c1cnccn1 [Acetylpyrazine] | 6 | <<1% | most effective among all of the pyrazine derivatives tested | > 4000
